Test results as given in the Kinase Knowledgebase extract (Sharma et al. 2016).
pIC50: −log10 of the molar value.

molecular target: EGFR (murine) (UniProt P00533); conditions: nih3t3/c7
Sequence (P00533 whole entry, looked up): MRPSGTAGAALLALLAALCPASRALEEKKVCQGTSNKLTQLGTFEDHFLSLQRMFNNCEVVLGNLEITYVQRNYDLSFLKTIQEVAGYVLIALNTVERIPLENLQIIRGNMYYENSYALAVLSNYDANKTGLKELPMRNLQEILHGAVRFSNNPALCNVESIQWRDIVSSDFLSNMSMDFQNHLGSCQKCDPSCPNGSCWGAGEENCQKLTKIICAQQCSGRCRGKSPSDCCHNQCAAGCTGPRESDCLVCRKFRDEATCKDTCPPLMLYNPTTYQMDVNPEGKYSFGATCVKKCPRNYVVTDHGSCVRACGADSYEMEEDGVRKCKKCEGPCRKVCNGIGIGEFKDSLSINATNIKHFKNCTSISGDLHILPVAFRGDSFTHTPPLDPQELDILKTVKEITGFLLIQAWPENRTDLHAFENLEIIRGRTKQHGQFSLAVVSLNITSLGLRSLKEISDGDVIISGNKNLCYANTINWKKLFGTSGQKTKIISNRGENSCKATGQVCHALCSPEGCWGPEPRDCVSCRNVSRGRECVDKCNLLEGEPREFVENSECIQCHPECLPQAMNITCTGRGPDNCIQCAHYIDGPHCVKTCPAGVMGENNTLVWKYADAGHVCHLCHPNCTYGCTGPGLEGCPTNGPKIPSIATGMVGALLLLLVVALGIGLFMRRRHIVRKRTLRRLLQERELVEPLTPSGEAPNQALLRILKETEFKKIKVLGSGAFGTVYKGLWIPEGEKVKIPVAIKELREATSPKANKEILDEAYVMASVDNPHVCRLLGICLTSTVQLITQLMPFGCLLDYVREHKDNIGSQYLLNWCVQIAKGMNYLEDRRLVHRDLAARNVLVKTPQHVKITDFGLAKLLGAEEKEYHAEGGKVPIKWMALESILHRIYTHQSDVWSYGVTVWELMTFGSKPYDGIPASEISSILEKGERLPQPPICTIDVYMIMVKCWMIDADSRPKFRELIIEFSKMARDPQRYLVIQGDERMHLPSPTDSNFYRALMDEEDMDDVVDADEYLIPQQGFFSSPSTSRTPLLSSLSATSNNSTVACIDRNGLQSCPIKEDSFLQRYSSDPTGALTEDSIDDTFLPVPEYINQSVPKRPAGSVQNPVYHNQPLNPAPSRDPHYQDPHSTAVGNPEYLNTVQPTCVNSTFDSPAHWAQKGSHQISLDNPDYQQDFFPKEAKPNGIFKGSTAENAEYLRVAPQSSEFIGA

Row | Structure (SMILES) | pIC50
1 | CC(=O)c1[nH]c(/C=C2\C(=O)Nc3ccccc32)c(C)c1C | < 4.00
2 | CCOC(=O)CCc1c(C(=O)OCC)[nH]c(/C=C2\C(=O)Nc3ccccc32)c1CC(=O)OCC | < 5.00
3 | CCOC(=O)c1c(C)[nH]c(/C=C2\C(=O)Nc3ccc(Br)cc32)c1C | < 4.60
4 | O=C1Nc2ncccc2/C1=C/c1cc2c([nH]1)CCCC2 | 4.52
5 | CCc1c(/C=C2\C(=O)Nc3ccccc32)[nH]c(C(=O)O)c1C | < 4.00
6 | CCOC(=O)c1[nH]c(/C=C2\C(=O)Nc3ccccc32)c(C(C)=O)c1C | < 5.00
7 | Cc1c(/C=C2\C(=O)Nc3ncccc32)[nH]c2c1CCCC2 | 4.42
8 | COC(=O)Cc1c(Cl)[nH]c(/C=C2\C(=O)Nc3ccccc32)c1C(=O)OC | < 4.30
9 | CCOC(=O)c1c(C)[nH]c(/C=C2\C(=O)Nc3ccc(NC(=O)c4ccc(C(=O)OC)cc4)cc32)c1C | < 5.00
10 | COC(=O)CCc1c[nH]c(/C=C2\C(=O)Nc3cc(OC)c(OC)cc32)c1C | < 4.30

Second part, the compound after the results:

Row | pIC50 | Structure (SMILES)
11 | < 4.00 | Cc1cc(C)c(/C=C2\C(=O)Nc3ncccc32)[nH]1
12 | 4.90 | O=C(O)CCc1c(/C=C2\C(=O)Nc3ncccc32)[nH]c2c1CCCC2
13 | < 4.00 | COC(=O)CCc1c[nH]c(/C=C2\C(=O)Nc3ccccc32)c1C
14 | < 4.00 | Cc1c[nH]c(/C=C2\C(=O)Nc3ccccc32)c1CC(=O)O
15 | < 4.30 | Cc1[nH]c(/C=C2\C(=O)Nc3ncccc32)c(C)c1CCC(=O)O
16 | < 4.60 | Cc1c(CCC(=O)O)c[nH]c1/C=C1\C(=O)Nc2ncccc21
